Consider 20 compounds from ChEMBL document CHEMBL1773025, “Synthesis of tetrahydronaphthalene lignan esters by intramolecular cyclization of ethyl p-azidophenyl-2-phenylalkanoates and evaluation of the growth inhibition of human tumor cell lines” (2011).

The test system of one test is NCI-H460. Briefly: Growth inhibition of human NCI-H460 cells after 48 hrs by sulforhodamine B assay. It is filed as functional. The settings on record: NCI-H460, 48 h.
A further test deals with MCF7. Nature of the test: Growth inhibition of human MCF7 cells after 48 hrs by sulforhodamine B assay. The settings on record: MCF7, 48 h. It is filed as functional.
The subject of a further test is SF-268. Nature of the test: Growth inhibition of human SF268 cells after 48 hrs by sulforhodamine B assay. The class given is functional. The settings on record: SF-268, 48 h.
For the next test, the system named is UACC-62. Briefly: Growth inhibition of human UACC62 cells after 48 hrs by sulforhodamine B assay. It is filed as functional. The settings on record: UACC-62, 48 h.
The next test has as its system HepG2. Nature of the test: Growth inhibition of human HepG2 cells after 48 hrs by sulforhodamine B assay. It is filed as functional, cell-based.
In the next test the test system is WI-38 VA13. Briefly: Growth inhibition of human VA13 cells after 48 hrs by sulforhodamine B assay. It is filed as functional, cell-based.

The source made the active and inactive calls. The calls are words filed in the database; no cut-off is given here. Some results are limits rather than exact numbers.

Consider `CCOC(=O)C(CCCc1cccc(N=[N+]=[N-])c1)c1ccccc1` (centres undefined), for which the GI50 was > 150 µM in the test on NCI-H460, 119 µM with MCF7 and > 150 µM in the test on SF-268.
As to `CCOC(=O)C(CCCc1ccc(N=[N+]=[N-])cc1)c1ccccc1` (centres undefined), the concentration for 50% growth inhibition (GI50) in the test with NCI-H460, in the test on MCF7 and in the test on SF-268 was > 150 µM in each case.
On to `COc1cccc2c1C(=O)c1c(O)c3c(c(O)c1C2=O)C[C@@](O)(C(=O)CO)C[C@@H]3O[C@H]1C[C@H](N)[C@H](O)[C@H](C)O1` [DOXORUBICIN], for which the results for the GI50 in the test on NCI-H460, in the test with MCF7 and in the test with SF-268 were 0.094 µM, 42.8 µM and 0.094 µM, respectively.
In the case of `CCOC(=O)C(CCc1cccc([N+](=O)[O-])c1)c1ccccc1` (centres undefined), the GI50 with NCI-H460 was 149 µM; in the test on MCF7 it was 92.7 µM; in the test on SF-268, > 150 µM.
The like results for `COC(=O)/C=C/c1ccc([N+](=O)[O-])cc1` were, in that order, > 240 µM, 214 µM and > 240 µM.
`CCOC(=O)C(CCCc1cccc(N)c1)c1ccccc1` (centres undefined): the GI50 in the test with NCI-H460 was 154 µM; in the test on MCF7, 109 µM; in the test on SF-268, > 160 µM; with UACC-62, 125 µM.
As to `O=[N+]([O-])c1ccc(CCI)cc1`, the GI50 with NCI-H460 amounted to 112 µM; with MCF7 it was 55.8 µM; in the test on SF-268, 95.7 µM.
Regarding `CCOC(=O)C(CCCc1ccc(N)cc1)c1ccccc1` (centres undefined), the GI50 in the test on NCI-H460 was > 160 µM; in the test on MCF7, 155 µM; in the test on SF-268 it was > 160 µM; with UACC-62 it was > 100 µM.
As for `O=[N+]([O-])c1cccc(CCCO)c1`, the GI50 with NCI-H460, with MCF7, with SF-268 and in the test with UACC-62 was > 250 µM in each case.
Regarding `CCOC(=O)C(CCc1ccc([N+](=O)[O-])cc1)c1ccccc1` (centres undefined), the figures for the GI50 in the test on NCI-H460, with MCF7 and in the test with SF-268 were > 150 µM, 134 µM and > 150 µM, respectively.
Turning to `CCOC(=O)C(CCc1ccc(N)cc1)c1ccccc1` (centres undefined), the GI50 came to 40.8 µM in the test on NCI-H460, 36.3 µM with MCF7, 51.8 µM in the test with SF-268 and 23.3 µM in the test with UACC-62.
In the case of `CCOC(=O)C(CCc1ccc(N=[N+]=[N-])cc1)c1ccccc1` (centres undefined), the GI50 in the test on NCI-H460 is > 160 µM; with MCF7, 125 µM; in the test on SF-268, > 160 µM.
Regarding `COc1cc(C2c3c(cc4c(c3OC)OCO4)CC(COC(C)=O)C2COC(C)=O)cc(OC)c1O` (centres undefined), the “growth inhibition (GI)” value in the test with HepG2 is “inactive”.
Consider `COC(=O)/C=C/c1cccc([N+](=O)[O-])c1`, for which the GI50 was found to be 175 µM in the test on NCI-H460, 74.1 µM in the test with MCF7 and 180 µM in the test with SF-268.
Take `CCOC(=O)C1CCC(c2ccc(N)cc2)c2ccccc21` (racemic): the concentration for 50% growth inhibition (GI50) with NCI-H460 was 142 µM; in the test with MCF7, 117 µM; with SF-268, 116 µM. Moreover, the “growth inhibition (GI)” value with WI-38 VA13 was “inactive”.
Turning to `CCOC(=O)C(CCc1cccc(N=[N+]=[N-])c1)c1ccccc1` (centres undefined), the figures for the GI50 with NCI-H460, in the test with MCF7 and in the test with SF-268 were > 160 µM, 120 µM and > 160 µM, respectively.
As to `CCOC(=O)C(CCc1cccc(N)c1)c1ccccc1` (centres undefined), the GI50 came to 132 µM with NCI-H460, 104 µM in the test on MCF7, 159 µM in the test with SF-268 and 102 µM in the test on UACC-62.
Take `CCOC(=O)C1CCC2(C=CC(=O)C=C2)c2ccccc21` (centres undefined): the GI50 with NCI-H460 was 19.2 µM; in the test with MCF7 it was 16.4 µM; in the test with SF-268, 21.9 µM.
In the case of `CCOC(=O)C(CCCc1ccc([N+](=O)[O-])cc1)c1ccccc1` (centres undefined), the GI50 in the test with NCI-H460 was found to be 19.4 µM; in the test on MCF7 it was 16.4 µM; with SF-268, 23.2 µM.
In the case of `CCOC(=O)C(CCCc1cccc([N+](=O)[O-])c1)c1ccccc1` (centres undefined), the GI50 with NCI-H460 was > 150 µM; in the test with MCF7, 149 µM; with SF-268 it was > 150 µM.
